# Measurements published in ChEMBL document CHEMBL4680214, “Fluorinated derivatives of 2-phenyl-3-hydroxy-4(1H)-quinolinone as tubulin polymerization inhibitors” (Eur J Med Chem, 2020).
# Calls of active or inactive are those of the source. The rule behind the calls is not given here.
# Assays:
# [1] = system: CCRF-CEM; test: Cytotoxicity against human daunorubicine-resistant CCRF-CEM cells incubated for 72 hrs by MTS assay; assay type: functional, cell-based
# [2] = system: K562; test: Cytotoxicity against human K562 cells incubated for 72 hrs by MTS assay; assay type: functional, cell-based; conditions: K562, 72 h
# [3] = system: K562; test: Cytotoxicity against human paclitaxel-resistant K562 cells incubated for 72 hrs by MTS assay; assay type: functional, cell-based; conditions: K562, 72 h
# [4] = system: HCT-116; test: Cytotoxicity against p53-deficient human HCT-116 cells incubated for 72 hrs by MTS assay; assay type: functional, cell-based; conditions: HCT-116, 72 h
# [5] = system: A549; test: Cytotoxicity against human A549 cells incubated for 72 hrs by MTS assay; assay type: functional, cell-based; conditions: A549, 72 h
# [6] = system: BJ; test: Cytotoxicity against human BJ cells incubated for 72 hrs by MTS assay; assay type: cell-based
# [7] = system: CCRF-CEM; test: Cell cycle arrest in human CCRF-CEM cells assessed as accumulation at G0/G1 phase at IC50 measured after 24 hrs by propidium iodide staining based flow cytometry (reference value: 35.2%); assay type: functional
# [8] = system: CCRF-CEM; test: Cell cycle arrest in human CCRF-CEM cells assessed as accumulation at G0/G1 phase at 5 times IC50 measured after 24 hrs by propidium iodide staining based flow cytometry (reference value: 35.2%); assay type: functional
# [9] = system: CCRF-CEM; test: Cell cycle arrest in human CCRF-CEM cells assessed as accumulation at S phase at IC50 measured after 24 hrs by propidium iodide staining based flow cytometry (reference value: 42.2%); assay type: functional
# [10] = system: CCRF-CEM; test: Cell cycle arrest in human CCRF-CEM cells assessed as accumulation at G2/M phase at IC50 measured after 24 hrs by propidium iodide staining based flow cytometry (reference value: 22.6%); assay type: functional
# [11] = system: CCRF-CEM; test: Cell cycle arrest in human CCRF-CEM cells assessed as phosphorylation of histone H3 at Ser10 at IC50 measured after 24 hrs by propidium iodide staining based flow cytometry (reference value: 2.0%); assay type: functional
# [12] = system: CCRF-CEM; test: Cell cycle arrest in human CCRF-CEM cells assessed as BrdU incorporation at 5 times IC50 measured after 24 hrs by propidium iodide/immunostaining based flow cytometry (reference value: 60.0%); assay type: functional
# [13] = system: CCRF-CEM; test: Cell cycle arrest in human CCRF-CEM cells assessed as BrU incorporation at IC50 measured after 24 hrs by propidium iodide/immunostaining based flow cytometry (reference value: 52.2%); assay type: functional
# [14] = system: CCRF-CEM; test: Cell cycle arrest in human CCRF-CEM cells assessed as BrU incorporation at 5 times IC50 measured after 24 hrs by propidium iodide/immunostaining based flow cytometry (reference value: 52.2%); assay type: functional
# [15] = system: HCT-116; test: Cell cycle arrest in human HCT-116 cells assessed as accumulation at sub-G1 phase at IC50 measured after 24 hrs by propidium iodide staining based flow cytometry (reference value: 1.6%); assay type: functional
# [16] = system: HCT-116; test: Cell cycle arrest in human HCT-116 cells assessed as accumulation at sub-G1 phase at 5 times IC50 measured after 24 hrs by propidium iodide staining based flow cytometry (reference value: 1.6%); assay type: functional
# [17] = system: HCT-116; test: Cell cycle arrest in human HCT-116 cells assessed as accumulation at G0/G1 phase at IC50 measured after 24 hrs by propidium iodide staining based flow cytometry (reference value: 35.3%); assay type: functional
# [18] = system: HCT-116; test: Cell cycle arrest in human HCT-116 cells assessed as accumulation at G0/G1 phase at 5 times IC50 measured after 24 hrs by propidium iodide staining based flow cytometry (reference value: 35.3%); assay type: functional
# [19] = system: HCT-116; test: Cell cycle arrest in human HCT-116 cells assessed as accumulation at S phase at 5 times IC50 measured after 24 hrs by propidium iodide staining based flow cytometry (reference value: 37.7%); assay type: functional
# [20] = system: HCT-116; test: Cell cycle arrest in human HCT-116 cells assessed as accumulation at G2/M phase at IC50 measured after 24 hrs by propidium iodide staining based flow cytometry (reference value: 27.0%); assay type: functional
# [21] = system: HCT-116; test: Cell cycle arrest in human HCT-116 cells assessed as accumulation at G2/M phase at 5 times IC50 measured after 24 hrs by propidium iodide staining based flow cytometry (reference value: 27.0%); assay type: functional
# [22] = system: HCT-116; test: Cell cycle arrest in human HCT-116 cells assessed as phosphorylation of histone H3 at Ser10 at 5 times IC50 measured after 24 hrs by propidium iodide staining based flow cytometry (reference value: 3.4%); assay type: functional
# [23] = system: HCT-116; test: Cell cycle arrest in human HCT-116 cells assessed as BrdU incorporation at IC50 measured after 24 hrs by propidium iodide/immunostaining based flow cytometry (reference value: 48.6%); assay type: functional
# [24] = system: HCT-116; test: Cell cycle arrest in human HCT-116 cells assessed as BrdU incorporation at 5 times IC50 measured after 24 hrs by propidium iodide/immunostaining based flow cytometry (reference value: 48.6%); assay type: functional
# [25] = system: HCT-116; test: Cell cycle arrest in human HCT-116 cells assessed as BrU incorporation at IC50 measured after 24 hrs by propidium iodide/immunostaining based flow cytometry (reference value: 54.0%); assay type: functional
# [26] = system: HCT-116; test: Cell cycle arrest in human HCT-116 cells assessed as BrU incorporation at 5 times IC50 measured after 24 hrs by propidium iodide/immunostaining based flow cytometry (reference value: 54.0%); assay type: functional
# [27] = system: CCRF-CEM; test: Cell cycle arrest in human CCRF-CEM cells assessed as polyploid cell population at 2 times IC50 measured after 6 hrs by propidium iodide staining based flow cytometry (reference value: 11.3%); assay type: functional
# [28] = system: CCRF-CEM; test: Cell cycle arrest in human CCRF-CEM cells assessed as polyploid cell population at 2 times IC50 measured after 12 hrs by propidium iodide staining based flow cytometry (reference value: 11.3%); assay type: functional
# [29] = system: CCRF-CEM; test: Cell cycle arrest in human CCRF-CEM cells assessed as polyploid cell population at 2 times IC50 measured after 24 hrs by propidium iodide staining based flow cytometry (reference value: 11.3%); assay type: functional
# [30] = system: CCRF-CEM; test: Cell cycle arrest in human CCRF-CEM cells assessed as increase in cyclin B1 expression at 2 times IC50 measured after 6 to 12 hrs by Western blot analysis; assay type: functional, cell-based; conditions: time 6-12 hrs
# [31] = system: CCRF-CEM; test: Cell cycle arrest in human CCRF-CEM cells assessed as increase in accumulation at G2/M phase at 2 times IC50 measured after 6 to 12 hrs by propidium iodide staining based flow cytometry; assay type: functional; conditions: time 6-12 hrs
# [32] = system: CCRF-CEM; test: Cell cycle arrest in human CCRF-CEM cells assessed as increase in Bax expression at 2 times IC50 measured after 24 hrs by Western blot analysis; assay type: functional, cell-based
# [33] = system: CCRF-CEM; test: Cell cycle arrest in human CCRF-CEM cells assessed as decrease in Bcl2 expression at 2 times IC50 measured after 24 hrs by Western blot analysis; assay type: functional, cell-based
# [34] = species on record: Sus scrofa; test: Inhibition of porcine brain tubulin polymerization at 10 umol/L measured at 60 secs interval for 30 mins by turbidometric method; conditions: dose 10.0 µmol/L
# [35] = species on record: Sus scrofa; test: Inhibition of porcine brain tubulin polymerization assessed as Vmax of polymerization at 10 umol/L measured at 60 secs interval for 30 mins by turbidometric method; conditions: dose 10.0 µmol/L
# [36] = molecular target: Tubulin (Homo sapiens) (UniProt P68371+Q9H4B7+P0DPH7+P68366+Q13509+Q71U36+P04350+Q3ZCM7+P07437+P68363+Q9BQE3+Q6PEY2+Q13885+Q9BVA1+Q9BUF5); test: Induction of microtubule depolymerization in human HCT-116 cells assessed as appearance of abnormal mitotic spindle morphology at 5 times IC50 after 24 hrs by DAPI staining based immunofluorescence analysis; assay type: cell-based
structure (smiles),measurement,setting,value
O=c1c(O)c(-c2ccccc2)[nH]c2cc(F)c(Sc3ccccc3)cc12,IC50,[1],3.7 µM
same,IC50,[2],1.3 µM
same,IC50,[3],2.9 µM
same,IC50,[4],4 µM
same,IC50,[5],3.6 µM
same,IC50,[6],> 50 µM
same,Activity,[7],1.8%
same,Activity,[8],58.2%
same,Activity,[9],56.7%
same,Activity,[10],41.5%
same,Activity,[11],9.4%
same,Activity,[12],18.7%
same,Activity,[13],67.4%
same,Activity,[14],11.4%
same,Activity,[15],3.4%
same,Activity,[16],8.2%
same,Activity,[17],33.3%
same,Activity,[18],2.7%
same,Activity,[19],33.2%
same,Activity,[20],33.2%
same,Activity,[21],64.1%
same,Activity,[22],15.5%
same,Activity,[23],42.1%
same,Activity,[24],41.6%
same,Activity,[25],65.4%
same,Activity,[26],63.9%
same,Activity,[27],10.5%
same,Activity,[28],12.4%
same,Activity,[29],16.6%
same,Activity,[30],Active
same,Activity,[31],Active
same,Activity,[32],Active
same,Activity,[33],inactive
same,inhibition,[34],Active
same,Vmax (milli optical density/minute),[35],8.3
same,Activity,[36],Active
